In US11578056B2, “Solid forms comprising (S)-2-(2,6-dioxopiperidin-3-yl)-4-((2-fluoro-4-((3-morpholinoazetidin-1-yl)methyl)benzyl)amino)isoindoline-1,3-dione and salts thereof, and compositions comprising and methods of using the same” (Celgene Corporation, priority 2019, dated 2023):

How the values were obtained:
Assay type in all cases: cell-based
U-2946 cell line = test: Hematological cell line viability/apoptosis flow cytometry assay; conditions: U-2946 (DLBCL), 120 h
Protocol: (§1) Cell Proliferation and Viability Assay Using Hematological Cell Lines: The following exemplary anti-proliferative assay uses exemplary hematological cell lines in the following. The in vitro growth inhibitory activity of Compound 1 described herein was evaluated using a 384-well flow cytometry assay.
(§2) The cell lines were plated in 384-well flat bottom plates and assessed with increasing concentrations of compound ranging from 0.00015 to 10 μM or dimethyl sulfoxide (DMSO) control. The final concentration of DMSO was 0.1% (v/v). Following the addition of Compound 1 or DMSO and incubation for 120 hours, cell number and cell death were analyzed by flow cytometry (Attune®, Thermo Fisher) using Annexin V and the live-cell impermeant DNA dye, DRAQ7. Phosphatidylserine translocates from the inner layer to the outer layer of the cell membrane early in apoptosis and Annexin V binds to the exposed phosphatidylserine found on the surface of an apoptotic cell. The vital dye DRAQ7 is excluded by intact live cells and only stains cells that have died as a result of apoptosis or necrosis.
(§3) Flow cytometry data analysis was then performed using the Flow Jo_v10 software to determine the number of viable cells (Annexin V and DRAQ7 double negative staining cells) and percentage of apoptotic cells (Annexin V positive cells) for each condition. The live cell count for every concentration was normalized to the DMSO control (considered as 100%) to calculate the percentage of viable cells remaining after treatment and graphed using GraphPad Prism 7.03. The IC50 (50% inhibitory concentration) and Emax (maximum efficacy achieved) values were then calculated by performing nonlinear regression curve fitting using log(inhibitor) vs. normalized response—variable slope analysis on GraphPad Prism 7.03. Area under the curve (AUC) was calculated by performing area under curve analysis on GraphPad Prism 7.03. Similarly, for apoptosis analysis, the percentage of apoptosis combining both “early” (Annexin V positive and DRAQ7 negative) and “late” apoptosis (Annexin V and DRAQ7 positive) cell gates relative to DMSO was graphed using GraphPad Prism 7.03. The AUC, EC50 (concentration of compound that produces half-maximal apoptosis response) and Ymax (maximal percentage of apoptosis achieved) values from apoptosis curves were calculated by performing area under curve analysis and nonlinear regression curve fitting using log(agonist) vs. normalized response—Variable slope analysis on GraphPad Prism 7.03.
(§4) Dose-response proliferation curves for the panel of hematological cell lines and non-linear curve-fit regression were used to determine IC50, AUC, and Emax for % viable cells (Emax for viability varies between 100 at low doses and 0 at high doses, which corresponds to inhibition of all viable cells), and dose-response apoptosis curves were used to determine the EC50, AUC, and Ymax for % apoptosis (Ymax for apoptosis varies from 0 at low doses and 100 at higher doses which corresponds to death of all cells). Tumor cells were exposed to serial dilutions (0.00015 to 10 μM) of Compound 1 or dimethyl sulfoxide (DMSO) control for 5 days. Viability and apoptosis for all cell lines was determined by Annexin V/7-aminoactinomycin D (7-AAD) flow cytometry.

ROS-50 cell line = test: as above; conditions: ROS-50 (DLBCL), 120 h
Protocol: as §1, §2, §3, §4

Pfeiffer cell line = test: as above; conditions: Pfeiffer (DLBCL GCB); 120 h
Protocol: as §1, §2, §3, §4

SVSL cell line = test: as above; conditions: SVSL (MZL, SMZL), 120 h
Protocol: as §1, §2, §3, §4

I83-E95 cell line = test: as above; conditions: I83-E95 (CLL), 120 h
Protocol: as §1, §2, §3, §4

NU-DUL-1 cell line = test: as above; conditions: NU-DUL-1 (DLBCL ABC); 120 h
Protocol: as §1, §2, §3, §4

CARNAVAL cell line = test: as above; conditions: CARNAVAL (DLBCL), 120 h
Protocol: as §1, §2, §3, §4

OCI-LY3 cell line = test: as above; conditions: OCI-LY3 (DLBCL ABC), 120 h
Protocol: as §1, §2, §3, §4

Mino cell line = test: as above; conditions: Mino (MCL); 120 h
Protocol: as §1, §2, §3, §4

HT cell line = test: as above; conditions: HT (DLBCL GCB); 120 h
Protocol: as §1, §2, §3, §4

SU-DHL-4 cell line = test: as above; conditions: SU-DHL-4 (DLBCL GCB); 120 h
Protocol: as §1, §2, §3, §4

CI cell line = test: as above; conditions: CI (CLL), 120 h
Protocol: as §1, §2, §3, §4

OCI-LY10 cell line = test: as above; conditions: OCI-LY10 (DLBCL ABC); 120 h
Protocol: as §1, §2, §3, §4

hematological cell lines = test: Hematological cell line viability/apoptosis flow cytometry assay, whole panel; conditions: panel of hematological cell lines, 0.00015 to 10 μM, 5 days
Protocol: as §1
The cell lines were plated in 384-well flat bottom plates and assessed with increasing concentrations of compound ranging from 0.00015 to 10 μM or dimethyl sulfoxide (DMSO) control. The final concentration of DMSO was 0.1% (v/v). Following the addition of Compound 1 or DMSO and incubation for 120 hours, cell number and cell death were analyzed by flow cytometry (Attune®, Thermo Fisher) using Annexin V and the live-cell impermeant DNA dye, DRAQ7. […]
Flow cytometry data analysis was then performed using the Flow Jo_v10 software to determine the number of viable cells (Annexin V and DRAQ7 double negative staining cells) and percentage of apoptotic cells (Annexin V positive cells) for each condition. […] The IC50 (50% inhibitory concentration) and Emax (maximum efficacy achieved) values were then calculated by performing nonlinear regression curve fitting using log(inhibitor) vs. normalized response—variable slope analysis on GraphPad Prism 7.03. Area under the curve (AUC) was calculated by performing area under curve analysis on GraphPad Prism 7.03. […]

O=C1CC[C@H](N2C(=O)c3cccc(NCc4ccc(CN5CC(N6CCOCC6)C5)cc4F)c3C2=O)C(=O)N1 [Compound 1, (S)-2-(2,6-dioxopiperidin-3-yl)-4-((2-fluoro-4-((3-morpholinoazetidin-1-yl)methyl)benzyl)amino)isoindoline-1,3-dione]
% Viable Cells AUC (U-2946 cell line): 45.47
% Viable Cells Emax (U-2946 cell line): 0.4821%
Apoptosis AUC (U-2946 cell line): 762.6
Apoptosis Ymax (U-2946 cell line): 93.34%
EC50 (U-2946 cell line): 192 nM
IC50 (U-2946 cell line; read-out: % Viable Cells IC50): 4.6 nM
% Viable Cells AUC (ROS-50 cell line): 762.1
% Viable Cells Emax (ROS-50 cell line): 65.57%
Apoptosis AUC (ROS-50 cell line): 87.92
Apoptosis Ymax (ROS-50 cell line): 10.9%
EC50 (ROS-50 cell line): 335 nM
IC50 (ROS-50 cell line; read-out: % Viable Cells IC50): > 10000 nM
% Viable Cells AUC (Pfeiffer cell line): 313.5
% Viable Cells Emax (Pfeiffer cell line): 24.49%
Apoptosis AUC (Pfeiffer cell line): 493.3
Apoptosis Ymax (Pfeiffer cell line): 51.82%
% Viable Cells AUC (SVSL cell line): 368.4
% Viable Cells Emax (SVSL cell line): 34.07%
Apoptosis AUC (SVSL cell line): 340.2
Apoptosis Ymax (SVSL cell line): 35.5%
EC50 (SVSL cell line): 2.84 nM
IC50 (SVSL cell line; read-out: % Viable Cells IC50): 95.2 nM
% Viable Cells AUC (I83-E95 cell line): 259.2
% Viable Cells Emax (I83-E95 cell line): 21.6%
Apoptosis AUC (I83-E95 cell line): 358.4
Apoptosis Ymax (I83-E95 cell line): 40.69%
EC50 (I83-E95 cell line): 61.1 nM
IC50 (I83-E95 cell line; read-out: % Viable Cells IC50): 17.3 nM
% Viable Cells AUC (NU-DUL-1 cell line): 22.12
% Viable Cells Emax (NU-DUL-1 cell line): 0.0228%
Apoptosis AUC (NU-DUL-1 cell line): 962.8
Apoptosis Ymax (NU-DUL-1 cell line): 99.84%
% Viable Cells AUC (CARNAVAL cell line): 110.6
% Viable Cells Emax (CARNAVAL cell line): 7.134%
Apoptosis AUC (CARNAVAL cell line): 708.7
Apoptosis Ymax (CARNAVAL cell line): 77.84%
EC50 (CARNAVAL cell line): 152 nM
IC50 (CARNAVAL cell line; read-out: % Viable Cells IC50): 9.12 nM
IC50 (OCI-LY3 cell line; Homo sapiens, read-out: % Viable Cells IC50): > 10000 nM
% Viable Cells AUC (OCI-LY3 cell line): 965.1
% Viable Cells Emax (OCI-LY3 cell line): 85.63%
Apoptosis AUC (OCI-LY3 cell line): 24.63
Apoptosis Ymax (OCI-LY3 cell line): 4.493%
% Viable Cells AUC (Mino cell line): 62.67
% Viable Cells Emax (Mino cell line): 5.638%
Apoptosis AUC (Mino cell line): 968.2
Apoptosis Ymax (Mino cell line): 97.04%
% Viable Cells AUC (HT cell line): 396.7
% Viable Cells Emax (HT cell line): 30.39%
Apoptosis AUC (HT cell line): 225.3
Apoptosis Ymax (HT cell line): 25.16%
% Viable Cells AUC (SU-DHL-4 cell line): 296.2
% Viable Cells Emax (SU-DHL-4 cell line): 23.44%
Apoptosis AUC (SU-DHL-4 cell line): 209
Apoptosis Ymax (SU-DHL-4 cell line): 25.33%
% Viable Cells AUC (CI cell line): 603.9
% Viable Cells Emax (CI cell line): 53.58%
Apoptosis AUC (CI cell line): 123.2
Apoptosis Ymax (CI cell line): 13.01%
EC50 (CI cell line): 22.9 nM
IC50 (CI cell line; read-out: % Viable Cells IC50): 9700 nM
% Viable Cells AUC (OCI-LY10 cell line): 125.3
% Viable Cells Emax (OCI-LY10 cell line): 10.16%
Apoptosis AUC (OCI-LY10 cell line): 188.9
Apoptosis Ymax (OCI-LY10 cell line): 22.31%
antiproliferative activity and/or apoptotic effects (hematological cell lines): antiproliferative activity and/or apoptotic effects in almost all hematological cell lines tested
